Experiments:
Experiment in all cases: relative viability (nuclei count vs DMSO), 5 days (fraction); higher = more cells survive
Bemcentinib + OSI-027 = compound: Nc1nc(Nc2ccc3c(c2)CC[C@@H](N2CCCC2)CC3)nn1-c1cc2c(nn1)-c1ccccc1CCC2 [Bemcentinib] + COc1cccc2cc(-c3nc([C@H]4CC[C@H](C(=O)O)CC4)n4ncnc(N)c34)[nH]c12 [OSI-027] (partner 0.5 µM)
Outline: (§1)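 Lung cancer cell lines, seeded in 1536-well plates, were treated the following day by pin tool with a single drug or with five library-drug doses (not always all listed) in √10 steps on top of a fixed anchor-drug dose. Cells were fixed and nuclei stained in one step after 5 days, and nuclei were counted. Relative viability is the nuclei count for treated wells divided by that for vehicle wells, reported as medians of duplicate plates.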

Bemcentinib + Crizotinib = compound: Nc1nc(Nc2ccc3c(c2)CC[C@@H](N2CCCC2)CC3)nn1-c1cc2c(nn1)-c1ccccc1CCC2 [Bemcentinib] + C[C@@H](Oc1cc(-c2cnn(C3CCNCC3)c2)cnc1N)c1c(Cl)ccc(F)c1Cl [Crizotinib] (partner 1 µM)
Outline: as §1

[1] = compound: CC1=CC=C(C=C1)C(=O)CN2C3=C(CCCC3)SC2=N [Pifithrin_alpha] + O=C(CCCCCCC(=O)Nc1ccccc1)NO [Vorinostat] (partner 1 µM)
Outline: as §1

Cell Line	relative viability (Bemcentinib + OSI-027; first compound 0.04 µM)	relative viability (Bemcentinib + OSI-027; first compound 0.1265 µM)	relative viability (Bemcentinib + OSI-027; first compound 0.4 µM)	relative viability (Bemcentinib + OSI-027; first compound 1.265 µM)	relative viability (Bemcentinib + OSI-027; first compound 4 µM)	relative viability (Bemcentinib + Crizotinib; first compound 0.04 µM)	relative viability (Bemcentinib + Crizotinib; first compound 0.1265 µM)	relative viability (Bemcentinib + Crizotinib; first compound 0.4 µM)	relative viability (Bemcentinib + Crizotinib; first compound 1.265 µM)	relative viability (Bemcentinib + Crizotinib; first compound 4 µM)	relative viability ([1]; first compound 3.162 µM)	relative viability ([1]; first compound 31.62 µM)	relative viability ([1]; first compound 100 µM)	relative viability ([1]; first compound 1 µM)	relative viability ([1]; first compound 10 µM)
NCI-H1563	0.783	0.812	0.819	0.766	0.757	0.79	0.759	0.81	0.849	0.89	–	–	–	–	–
EMC-BAC-2	0.372	0.369	0.427	0.37	0.388	0.788	0.801	0.776	0.836	0.831	0.413	0.328	0.413	–	–
NCI-H596	0.739	0.665	0.707	0.757	0.802	0.969	1.01	1.08	1.1	1.05	0.603	0.585	0.65	0.594	0.603
NCI-H2009	0.626	0.743	0.684	0.709	0.665	1.01	1.08	1.11	0.951	1.05	0.715	0.399	0.57	0.697	0.601
HOP-62	0.958	0.904	0.845	0.853	0.9	1.01	1.08	–	0.734	1.03	0.603	0.375	0.658	0.436	0.645
NCI-H2126	0.679	0.692	0.756	0.688	0.683	1.05	1.1	1.01	1.03	1.02	0.719	0.716	0.763	0.433	0.738
HCC-15	0.716	0.794	0.74	0.726	0.815	0.834	0.91	0.908	0.871	0.92	0.833	0.676	0.646	0.871	0.8
NCI-H23	0.581	0.612	0.713	0.447	0.684	0.493	0.608	0.522	0.613	0.482	0.4	0.343	0.584	0.457	0.604
LCLC-97TM1	0.649	0.527	0.538	0.542	0.598	0.267	0.475	–	0.376	0.259	0.857	–	0.726	–	0.852
SW 1573	0.609	0.731	0.677	0.589	0.661	0.724	0.814	0.684	0.776	0.764	0.787	0.498	0.82	–	0.719
EKVX	0.57	0.669	0.753	0.793	0.824	0.973	0.981	1.06	1.03	0.986	0.597	0.636	0.572	–	0.549
HCC-44	0.452	0.661	0.446	0.483	0.511	0.832	0.806	0.864	0.813	0.852	0.924	0.834	0.902	1.04	0.91
NCI-H1651	0.771	0.811	0.738	0.741	0.74	0.886	0.882	0.873	0.905	0.878	0.553	0.533	0.563	0.148	0.476
COR-L23	0.665	0.969	0.905	0.788	0.888	0.65	0.787	0.729	0.784	0.56	0.349	–	0.344	0.42	0.361
NCI-H1299	–	–	–	–	–	0.963	0.967	1.02	0.937	0.942	–	–	–	–	–
NCI-H1734	0.643	0.66	0.552	0.583	0.591	0.686	0.691	0.669	0.667	0.698	0.776	0.537	0.75	0.715	0.773
NCI-H1793	0.265	0.305	0.299	–	0.282	–	–	–	–	–	0.571	0.753	0.46	0.674	0.655
NCI-H522	0.714	0.548	0.614	0.656	0.728	–	–	–	–	–	0.992	0.759	0.919	0.777	0.993
LU99A	0.283	0.279	0.28	0.285	0.275	0.549	0.629	0.542	0.574	0.532	0.646	–	0.463	0.491	0.373
NCI-H1437	0.884	0.845	0.995	0.961	0.915	0.931	1.04	0.972	0.984	0.967	0.619	0.468	0.356	0.78	0.565
NCI-H460	0.73	1.2	0.827	0.686	0.851	0.976	0.994	0.937	1.04	0.964	0.397	0.0968	0.178	0.797	0.182
NCI-H1395	0.654	0.74	0.616	0.613	0.594	–	–	–	–	–	0.662	–	0.661	–	0.723
NCI-H2085	0.722	0.945	0.764	0.686	0.752	0.836	0.802	0.753	0.803	0.919	0.737	0.616	0.623	0.648	0.71
NCI-H1703	–	–	–	–	–	–	0.687	0.723	0.717	0.627	–	–	–	–	–
HCC-366	0.803	1.17	0.921	0.875	0.898	0.524	0.902	0.583	0.629	0.383	0.204	–	0.209	0.252	0.171
NCI-H1648	0.245	0.271	0.275	0.245	0.283	–	–	–	–	–	0.473	0.347	0.421	0.523	0.378

Cell Line	relative viability (Bemcentinib + OSI-027; first compound 0.04 µM)	relative viability (Bemcentinib + OSI-027; first compound 0.1265 µM)	relative viability (Bemcentinib + OSI-027; first compound 0.4 µM)	relative viability (Bemcentinib + OSI-027; first compound 1.265 µM)	relative viability (Bemcentinib + OSI-027; first compound 4 µM)	relative viability (Bemcentinib + Crizotinib; first compound 0.04 µM)	relative viability (Bemcentinib + Crizotinib; first compound 0.1265 µM)	relative viability (Bemcentinib + Crizotinib; first compound 0.4 µM)	relative viability (Bemcentinib + Crizotinib; first compound 1.265 µM)	relative viability (Bemcentinib + Crizotinib; first compound 4 µM)	relative viability ([1]; first compound 3.162 µM)	relative viability ([1]; first compound 31.62 µM)	relative viability ([1]; first compound 100 µM)	relative viability ([1]; first compound 1 µM)	relative viability ([1]; first compound 10 µM)
NCI-H322M	0.585	0.596	0.597	0.621	0.597	1.02	0.971	0.944	1.05	1.09	0.811	0.788	0.845	0.807	0.802
201T	0.599	1.02	0.778	0.709	0.801	1.05	1.03	0.983	1.05	1.07	0.948	0.666	0.711	0.529	0.757
SK-LU-1	0.37	0.382	0.35	0.369	0.331	0.923	1.09	0.943	1.07	1.09	0.862	0.676	0.75	0.94	0.774
ChaGo-K-1	0.515	0.794	0.626	0.614	0.531	1.12	1.33	1.15	1.18	1.12	0.836	0.524	0.771	0.574	0.788
NCI-H1755	0.79	0.711	0.758	0.793	0.732	0.901	0.878	0.838	0.939	0.901	0.853	0.599	0.724	0.773	0.694
NCI-H1666	0.82	0.991	0.883	0.885	0.923	1.01	0.889	0.963	0.861	0.89	0.962	0.771	0.793	0.96	0.723
PC-3 [JPC-3]	0.765	0.727	0.829	0.739	0.752	0.959	1.03	1	0.974	1.09	0.61	0.609	0.639	–	–
NCI-H358	0.799	0.952	0.837	0.99	0.939	0.587	0.506	0.511	0.54	0.53	0.708	0.344	0.545	0.733	0.867
NCI-H1975	0.719	0.82	0.737	0.795	0.772	1.07	1.23	1.07	1.1	1.17	0.708	0.54	0.529	0.626	0.579
Calu-6	–	–	–	–	–	0.76	0.958	1.09	0.858	0.676	–	–	–	–	–
EBC-1	–	–	–	–	–	0.185	0.214	0.179	0.236	0.193	–	–	–	–	–
LC-2-ad	0.892	0.906	0.761	0.964	0.927	0.467	0.482	0.416	0.411	0.452	0.719	0.465	0.521	0.692	0.689
NCI-H1993	0.592	0.534	0.557	0.548	0.506	0.913	0.966	0.876	1.03	1.1	0.607	0.627	0.793	0.771	0.754
CAL-12T	0.6	0.912	0.77	0.769	0.755	0.394	0.767	0.679	0.62	0.525	0.73	–	0.651	0.699	0.706
NCI-H1650	0.59	0.913	0.624	0.72	0.724	0.887	0.998	1.05	0.973	0.814	0.596	0.382	0.373	0.527	0.332
H3255	0.597	0.66	0.558	0.66	0.666	0.867	0.938	0.914	0.878	0.888	0.818	0.497	0.703	0.682	0.788
NCI-H2228	0.186	0.599	0.745	0.575	0.775	–	0.551	0.599	0.467	0.451	0.663	0.387	0.374	0.831	0.721
NCI-H727	0.552	0.631	0.645	0.592	0.576	0.666	1.08	0.743	0.801	0.817	1.18	0.777	1.35	0.461	1.14
NCI-H1355	0.379	0.412	0.46	0.399	0.44	1.08	1.18	1.07	1.14	1.17	0.483	0.376	0.479	0.606	0.429
IA-LM	–	–	–	–	–	0.777	0.654	0.947	0.752	0.842	1.16	0.913	0.907	–	–
NCI-H2342	0.618	0.655	0.689	0.56	0.567	–	–	–	–	–	0.632	0.815	0.741	0.746	0.769
SW 900	0.446	0.544	0.71	0.473	0.419	–	–	–	–	–	0.277	0.36	0.377	0.527	0.432
NCI-H1623	0.401	0.418	0.424	0.45	0.502	–	–	–	–	–	–	–	–	–	–
A549	–	–	–	–	–	0.786	0.795	0.966	0.824	0.742	–	–	–	–	–
NCI-H1792	0.85	0.884	0.881	1	0.768	1.02	1.2	1.26	0.965	0.957	–	–	–	–	–

Source: the supplement of paper PMC10307832
